The test system of the test is Myc. As to the kind of experiment: Myc inhibition assay: Myc expression per cell by anti-Myc immunofluorescence, high-content imaging. It is filed as cell-based, human (patient-derived medulloblastoma xenograft cells). To be noted: medulloblastoma PDX cells, 4 h. The procedure, abridged: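 IC50 comes from high-content imaging of per-cell Myc immunostaining (DAPI-labelled nuclei) after 4 h compound exposure. Cells were freshly dissociated medulloblastoma PDX tumours, never passaged in vitro, grown in NSG mouse cerebellum, plated serum-free and recovered overnight before treatment.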
For orientation: A xenograft is tissue or cells of one species grown in another, often human tumour cells in immunodeficient mice.

The mark [1] stands for this setting: Table 1, read-out: IC50 (Myc inhibition).
The mark [2] stands for this setting: Table 2, read-out: MYC Inhibition IC50.

Like-named read-outs stand apart in the source and are kept apart here.

One may read the IC50 as the concentration that gives 50% inhibition. As to `Cc1cc(Nc2nccc(-c3cnc4nc[nH]c4c3)n2)ccc1F` [Compound 135, N-(4-fluoro-3-methylphenyl)-4-(1H-imidazo[4,5-b]pyridin-6-yl)pyrimidin-2-amine], the IC50 reads like this: under setting [1], under 200 nM; under setting [2], under 200 nM.
With `Cc1cccc(Nc2nccc(-c3cnc4nc[nH]c4c3)n2)c1` [Compound 136, 4-(1H-imidazo[4,5-b]pyridin-6-yl)-N-(m-tolyl)pyrimidin-2-amine], the IC50 is under 200 nM under setting [1] and under 200 nM under setting [2].
As for `Fc1cccc(Nc2nccc(-c3ccc4[nH]nnc4c3)n2)c1` [Compound 138, 4-(1H-benzo[d][1,2,3]triazol-5-yl)-N-(3-fluorophenyl)pyrimidin-2-amine], the IC50 is 1000 to 10000 nM under setting [1] and 1000 to 10000 nM under setting [2].
For the compound `FC(F)(F)c1cccc(Nc2nccc(-c3ccc4[nH]nnc4c3)n2)c1` [Compound 139, 4-(1H-Benzo[d][1,2,3]triazol-5-yl)-N-(3-(trifluoromethyl)phenyl)pyrimidin-2-amine], the half-inhibitory concentration (IC50) is, setting by setting: under setting [1], 200 to 1000 nM; under setting [2], 200 to 1000 nM.
For `CCc1cccc(Nc2nccc(-c3cnc4nc[nH]c4c3)n2)c1` [Compound 140, N-(3-ethylphenyl)-4-(1H-imidazo[4,5-b]pyridin-6-yl)pyrimidin-2-amine], the IC50 under setting [1] is under 200 nM and the IC50 under setting [2] is under 200 nM.
Take `Clc1cccc(Nc2nccc(-c3cnc4nc[nH]c4c3)n2)c1` [Compound 141, N-(3-chlorophenyl)-4-(1H-imidazo[4,5-b]pyridin-6-yl)pyrimidin-2-amine]: the 50% inhibitory concentration (IC50) under setting [1] is under 200 nM and the IC50 under setting [2] is under 200 nM.
With `Cc1nc2ccc(-c3ccnc(Nc4cccc(C(F)(F)F)c4)n3)cc2[nH]1` [Compound 142, 4-(2-Methyl-1H-benzo[d]imidazol-6-yl)-N-(3-(trifluoromethyl)phenyl)pyrimidin-2-amine], the concentration for half-maximal inhibition (IC50) is, setting by setting: under setting [1], 200 to 1000 nM; under setting [2], 200 to 1000 nM.
Consider `COc1ncc(-c2ccnc(Nc3cccc(C(F)(F)F)c3)n2)s1` [Compound 143, 4-(2-methoxythiazol-5-yl)-N-(3-(trifluoromethyl)phenyl)pyrimidin-2-amine], for which the IC50 by setting is: under setting [1], 200 to 1000 nM; under setting [2], 200 to 1000 nM.
For the compound `Oc1ncc(-c2ccnc(Nc3cccc(C(F)(F)F)c3)n2)s1` [Compound 144, 5-(2-((3-(trifluoromethyl)phenyl)amino)pyrimidin-4-yl)thiazol-2-ol], the half-maximal inhibitory concentration (IC50) is 200 to 1000 nM under setting [1] and 200 to 1000 nM under setting [2].
Turning to `Oc1cc(-c2ccnc(Nc3cncc(F)c3)n2)ccn1` [Compound 145, 4-(2-((5-fluoropyridin-3-yl)amino)pyrimidin-4-yl)pyridin-2-ol], the concentration for half-maximal inhibition (IC50) lay within 1000 to 10000 nM under setting [1] and 1000 to 10000 nM under setting [2].
With `COc1cc(-c2ccnc(Nc3cncc(F)c3)n2)ccn1` [Compound 146, N-(5-fluoropyridin-3-yl)-4-(2-methoxypyridin-4-yl)pyrimidin-2-amine], the concentration for half-maximal inhibition (IC50) under setting [1] is 1000 to 10000 nM and the concentration for half-maximal inhibition (IC50) under setting [2] was 1000 to 10000 nM.
Regarding `Oc1cc(-c2ccnc(Nc3cc(F)cc(F)c3)n2)ccn1` [Compound 147, 4-(2-((3,5-difluorophenyl)amino)pyrimidin-4-yl)pyridin-2-ol], the IC50 by setting is: under setting [1], 1000 to 10000 nM; under setting [2], 1000 to 10000 nM.
Take `COc1cc(-c2ccnc(Nc3cc(F)cc(F)c3)n2)ccn1` [Compound 148, N-(3,5-difluorophenyl)-4-(2-methoxypyridin-4-yl)pyrimidin-2-amine]: the IC50 fell in the range of 1000 to 10000 nM under setting [1] and 1000 to 10000 nM under setting [2].
As for `CC(C)(C)c1cccc(Nc2nccc(-c3ccnc(O)c3)n2)c1` [Compound 149, 4-(2-((3-(tert-butyl)phenyl)amino)pyrimidin-4-yl)pyridin-2-ol], the concentration for half-maximal inhibition (IC50) was in the range of 200 to 1000 nM under setting [1] and 200 to 1000 nM under setting [2].
Consider `COc1cc(-c2ccnc(Nc3cccc(C(C)(C)C)c3)n2)ccn1` [Compound 150, N-(3-(tert-butyl)phenyl)-4-(2-methoxypyridin-4-yl)pyrimidin-2-amine], for which the concentration for half-maximal inhibition (IC50) runs as follows: under setting [1], 1000 to 10000 nM; under setting [2], 1000 to 10000 nM.
On to `Fc1cccc(Nc2nccc(-c3cnc4nc[nH]c4c3)n2)c1` [Compound 151, N-(3-fluorophenyl)-4-(1H-imidazo[4,5-b]pyridin-6-yl)pyrimidin-2-amine], for which the 50% inhibitory concentration (IC50) under setting [1] was under 200 nM and the half-maximal inhibitory concentration (IC50) under setting [2] was under 200 nM.
Take `FC(F)(F)c1cccc(Nc2nccc(-c3ccc4[nH]ccc4c3)n2)c1` [Compound 152, 4-(1H-indol-5-yl)-N-(3-(trifluoromethyl)phenyl)pyrimidin-2-amine]: the IC50 by setting is: under setting [1], 1000 to 10000 nM; under setting [2], 1000 to 10000 nM.
As to `Fc1cccc(Nc2nccc(-c3ccc4[nH]ccc4c3)n2)c1` [Compound 153, N-(3-fluorophenyl)-4-(1H-indol-5-yl)pyrimidin-2-amine], the IC50 under setting [1] fell in the range of 1000 to 10000 nM and the IC50 under setting [2] is 1000 to 10000 nM.
Take `Oc1cc(-c2ccnc(Nc3cncc(C(F)(F)F)c3)n2)ccn1` [Compound 154, 4-(2-((5-(trifluoromethyl)pyridin-3-yl)amino)pyrimidin-4-yl)pyridin-2-ol]: the half-maximal inhibitory concentration (IC50) lay within 200 to 1000 nM under setting [1] and 200 to 1000 nM under setting [2].
Regarding `COc1cc(-c2ccnc(Nc3cncc(C(F)(F)F)c3)n2)ccn1` [Compound 155, 4-(2-methoxypyridin-4-yl)-N-(5-(trifluoromethyl)pyridin-3-yl)pyrimidin-2-amine], the IC50 under setting [1] lay in the range of 10000 to 100000 nM and the IC50 under setting [2] was 10000 to 100000 nM.
In the case of `Oc1cc(-c2ccnc(Nc3ccnc(C(F)(F)F)c3)n2)ccn1` [Compound 156, 4-(2-((2-(trifluoromethyl)pyridin-4-yl)amino)pyrimidin-4-yl)pyridin-2-ol], the 50% inhibitory concentration (IC50) is, setting by setting: under setting [1], 10000 to 100000 nM; under setting [2], 10000 to 100000 nM.
As to `COc1cc(-c2ccnc(Nc3ccnc(C(F)(F)F)c3)n2)ccn1` [Compound 157, 4-(2-methoxypyridin-4-yl)-N-(2-(trifluoromethyl)pyridin-4-yl)pyrimidin-2-amine], the IC50 lay in the range of 10000 to 100000 nM under setting [1] and 10000 to 100000 nM under setting [2].
In the case of `Oc1cc(-c2ccnc(Nc3cc(C(F)(F)F)ccn3)n2)ccn1` [Compound 158, 4-(2-((4-(trifluoromethyl)pyridin-2-yl)amino)pyrimidin-4-yl)pyridin-2-ol], the IC50 is, setting by setting: under setting [1], 10000 to 100000 nM; under setting [2], 10000 to 100000 nM.
As for `Cc1cccc(Nc2nccc(-c3ccnc(O)c3)n2)c1` [Compound 159, 4-(2-(m-tolylamino)pyrimidin-4-yl)pyridin-2-ol], the half-inhibitory concentration (IC50) reads like this: under setting [1], 200 to 1000 nM; under setting [2], 200 to 1000 nM.
Take `COc1cc(-c2ccnc(Nc3cccc(C)c3)n2)ccn1` [Compound 160, 4-(2-methoxypyridin-4-yl)-N-(m-tolyl)pyrimidin-2-amine]: the IC50 by setting is: under setting [1], 1000 to 10000 nM; under setting [2], 1000 to 10000 nM.
Take `FC(F)(F)c1cccc(Nc2nccc(-c3cnc4nc[nH]c4c3)n2)c1` [Compound 161, 4-(1H-imidazo[4,5-b]pyridin-6-yl)-N-(3-(trifluoromethyl)phenyl)pyrimidin-2-amine]: the IC50 was under 200 nM under setting [1] and under 200 nM under setting [2].
On to `COc1cc(-c2ccnc(Nc3ccccc3)n2)ncn1` [Compound 162, 6′-methoxy-N-phenyl-[4,4′-bipyrimidin]-2-amine], for which the IC50 by setting is: under setting [1], 10000 to 100000 nM; under setting [2], 10000 to 100000 nM.
In the case of `COc1nccc(-c2ccnc(Nc3ccccc3)n2)n1` [Compound 163, 2′-Methoxy-N-phenyl-[4,4′-bipyrimidin]-2-amine], the concentration for half-maximal inhibition (IC50) under setting [1] lay within 10000 to 100000 nM and the IC50 under setting [2] fell in the range of 10000 to 100000 nM.

These data come from US20260356817A1, “AMINOPYRIMIDINE AND AMINOTRIAZINE DERIVATIVES AS MYC PROTEIN MODULATORS” (Sanford Burnham Prebys Medical Discovery Institute, priority 2022, published 2026).
